According to EP2340020B1, “MANGANESE AND COBALT COMPLEXES, THEIR PREPARATION AND USE” (GP Investimenti S.r.l., priority 2008, dated 2010):

Assays:
O2^- = O2^- scavenging in a cell-free system (xanthine/xanthine oxidase), NBT oxidation; format: biochemical; settings: compound at 10^-5 M; baseline 294±12 sec.; p<0.01
Source text: (§1) In vitro, the xanthine oxidase enzyme metabolises the xanthine substrate and generates uric acid and O2 as products of the reaction, which can be measured spectrophotometrically by oxidation of the NBT chromogen.

xanthine oxidase enzyme = test: Uric acid levels in the xanthine/xanthine oxidase system (check for enzyme inhibition); format: biochemical
Source text: as §1

[1] = system: fMLP-stimulated RAW 264.7 macrophages; test: O2^- scavenging in cultures of fMLP-stimulated macrophages, Fe(II)cytC oxidation; format: cell-based
Source text: The chemotactic peptide fMLP triggers a specific inflammatory activation of the macrophages, which produce high levels of O2^-, that are measurable spectrophotometrically by means of the oxidation of the Fe(II)cytC chromogen.

RAW 264.7 macrophages = test: Toxicity: viability of macrophage cultures; format: cell-based
Description: The viability of the cultures of RAW 264.7 macrophages was measured at various intervals (24, 48, 72 h) after adding increasing concentrations of the compound of Example 2 (10^-7 M- 10^-4 M).

[2] = system: rat aorta smooth muscle cells (RASM); test: Protection from oxidative stress: MDA levels, O2^- generated by xanthine oxidase/xanthine; format: cell-based; settings: xanthine oxidase/xanthine system; comparable with, or even greater than SOD
Description: (§2) The primary targets of the cytotoxic action of ROS are the membrane lipids, which are peroxidised with the formation of malondialdehyde (MDA). This can be measured spectrophotometrically using the chromogen that is generated from the reaction of MDA with thiobarbituric acid. This measurement is consequently a reliable indicator of ROS-induced cell damage.
(§3) Cultures of rat aorta smooth muscle cells (RASM) were prepared in a medium in which O2^- was generated both by means of the xanthine oxidase/xanthine enzymatic system and by RAW 264.7 macrophages stimulation with fMLP (see the two diagrams shown below, respectively).

[3] = system: rat aorta smooth muscle cells (RASM); test: Protection from oxidative stress: MDA levels, O2^- generated by fMLP-stimulated RAW 264.7 macrophages; format: cell-based; settings: RAW 264.7 macrophages stimulated with fMLP; comparable with, or even greater than SOD
Description: as §2, §3

Sequence of xanthine oxidase enzyme (P47989 whole entry, species assumed): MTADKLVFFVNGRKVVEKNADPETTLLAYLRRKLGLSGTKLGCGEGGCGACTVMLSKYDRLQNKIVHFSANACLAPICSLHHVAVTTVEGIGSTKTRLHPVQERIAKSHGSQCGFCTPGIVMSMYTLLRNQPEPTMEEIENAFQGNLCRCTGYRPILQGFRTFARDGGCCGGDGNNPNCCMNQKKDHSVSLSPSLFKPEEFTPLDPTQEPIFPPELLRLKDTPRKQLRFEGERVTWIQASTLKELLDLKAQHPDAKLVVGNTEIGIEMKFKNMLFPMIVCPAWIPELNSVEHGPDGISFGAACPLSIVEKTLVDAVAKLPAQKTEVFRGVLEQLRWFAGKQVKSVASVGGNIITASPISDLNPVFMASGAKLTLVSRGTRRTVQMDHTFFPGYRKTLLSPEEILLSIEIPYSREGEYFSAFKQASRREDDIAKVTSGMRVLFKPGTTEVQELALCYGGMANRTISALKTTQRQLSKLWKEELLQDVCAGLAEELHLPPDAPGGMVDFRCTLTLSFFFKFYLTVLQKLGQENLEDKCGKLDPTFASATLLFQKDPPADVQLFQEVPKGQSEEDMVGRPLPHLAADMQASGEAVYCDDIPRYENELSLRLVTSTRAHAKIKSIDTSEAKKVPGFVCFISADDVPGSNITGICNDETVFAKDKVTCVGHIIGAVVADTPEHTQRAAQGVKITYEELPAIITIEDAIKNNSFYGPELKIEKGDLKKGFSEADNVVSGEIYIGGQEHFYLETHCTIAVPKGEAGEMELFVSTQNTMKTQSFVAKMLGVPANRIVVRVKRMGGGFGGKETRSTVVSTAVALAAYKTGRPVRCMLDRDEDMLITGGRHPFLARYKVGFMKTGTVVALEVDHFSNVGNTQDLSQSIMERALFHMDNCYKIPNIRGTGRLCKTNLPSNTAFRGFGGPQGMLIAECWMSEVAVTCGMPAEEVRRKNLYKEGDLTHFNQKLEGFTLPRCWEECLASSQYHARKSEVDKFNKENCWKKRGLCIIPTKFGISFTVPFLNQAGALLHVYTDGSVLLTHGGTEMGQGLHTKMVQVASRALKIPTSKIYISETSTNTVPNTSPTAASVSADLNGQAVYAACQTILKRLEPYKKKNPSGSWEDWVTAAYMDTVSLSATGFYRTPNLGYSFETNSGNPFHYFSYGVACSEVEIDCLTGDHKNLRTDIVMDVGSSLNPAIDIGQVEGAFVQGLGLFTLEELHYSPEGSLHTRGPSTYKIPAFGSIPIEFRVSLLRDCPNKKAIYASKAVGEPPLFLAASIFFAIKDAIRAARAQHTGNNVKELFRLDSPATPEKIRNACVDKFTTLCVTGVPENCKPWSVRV

## Mn(4,10-dimethyl-1,4,7,10-tetraazacyclododecane-1,7-diacetate) 2H2O) [Example 2]
O2^-
  time taken to oxidise 50% of the NBT: 390 ± 16 s
Xanthine oxidase enzyme
  levels of uric acid: does not reduce the levels of uric acid
[1]; 10^-9-10^-6 M
  levels of oxidised Fe(II)cytC: dose-dependent, significant reduction
[1]; pre-incubation, removal before fMLP
  activity when pre-incubated and then removed from the cell cultures before adding the activating stimulus: remains active
[1]; reduction of O2^- generated by fMLP-activated macrophages, read-out: 50% inhibiting concentration (IC50%)
  IC50: 60 nM
RAW 264.7 macrophages; 10^-7 M-10^-4 M, 24, 48, 72 h, effect only after 72 hours and at 10^-5-10^-4 M
  cytotoxicity (viability of the cultures): mildly cytotoxic only after incubation times of 72 hours and at the greatest concentrations
RAW 264.7 macrophages; concentrations of the order of 0.1 milligrams/litre
  cell toxicity at active concentrations: no cell toxicity
[2]
  levels of MDA in the RASM cells: significantly reduced
[3]
  levels of MDA in the RASM cells: significantly reduced

## MnSO4 [reference compound]
[1]; Figure 2
  effectiveness in reducing O2^- levels generated by fMLP-activated macrophages: entirely ineffective
